# Measurements reported in patent US10034462B2, “Animal model of nash-induced hepatocellular carcinoma and methods for developing specific therapeutics” (THE REGENTS OF THE UNIVERSITY OF CALIFORNIA, priority 2015, dated 2018).
# Test system: WT HcPC-transplanted MUP-uPA mice
# Assay: Effect of TNF antagonist on HFD-induced acceleration of tumor growth in HcPC-transplanted MUP-uPA mice
# Type: in vivo, mouse
# Conditions: HFD for 5 months; 5 mg/kg i.p. three times a week during the last 7 weeks, vs vehicle
# From the text: FIGS. 13A-13J are pictorial and graphical diagrams showing analyses of HcPC transplanted MUP-uPA mice. […] Data are means±S.D. (n=3 per group). […] FIGS. 13C-13F show no differences in the severity of NASH and TNF expression in the background liver of MUP-uPA mice transplanted with either WT and Tnfr1^−/− HcPC. Body weight (FIG. 13C), serum ALT (FIG. 13D), expression of TNF mRNA in non-tumor tissues (FIG. 13E), liver steatosis (FIG. 13F) and fibrosis (FIG. 13G) in MUP-uPA mice transplanted with either WT or Tnfr1^−/− HcPC and kept on LFD or HFD are shown (scale bar=100 μm). Data are expressed as means±S.D. (n=10-11 per group). *p<0.05. […] 5 mg/kg etanercept or vehicle control was i.p. injected three times a week during the last 7 weeks. Representative images of livers and maximal tumor sizes are shown. Data are expressed as means±S.E.M. (control, n=10; etanercept, n=12). […] HcPC-transplanted Tnfr1^−/−/MUP-uPA mice were divided into two groups that were fed with either LFD or HFD, and 5 months later tumorigenesis was assessed. Representative images of livers and maximal tumor sizes are shown. Data are expressed as means±S.E.M. (n=10 per group).
# DEN (Sigma) was i.p. injected into male mice (25 mg/kg) on postnatal day 14. After 5 months, HcPCs were isolated as described and transplanted into 4 weeks old MUP-uPA (He et al., 2013). […]
substance,measurement,value
Etanercept,HCC growth (maximal tumor size),significantly suppressed
